Laboratory results from US20060258692A1, “Quinazolinone compositions for regulation of gene expression related to pathological processes” (priority 2002, published 2006).

What was measured:
IGFBP-1 in HepG2 cells = experiment: IGFBP-1 gene expression and secretion in HepG2 cells, dose and time response
[1] = test system: IGFBP-1 in rat primary hepatocytes; experiment: IGFBP-1 synthesis in rat primary hepatocytes (Western blot); type: cell-based
IGFBP-1 gene expression = experiment: Northern blot and in situ hybridization of liver biopsies with IGFBP-1 probe
IGFBP-3 mRNA = experiment: Northern blot of liver biopsies with IGFBP-3 probe
[2] = test system: PRL-1 and Apolipoprotein AIV; experiment: Northern blot validation of Atlas microarray results in liver biopsies; type: in vivo, rat; settings: TAA vs TAA plus halofuginone
[3] = test system: rats insulted with dimethylnitrosamine (DMN) or thioacetamide (TAA); settings: cited from earlier work
[4] = test system: IGFBP-1 in HepG2, Huh-7, Hep3B, Det551, ROS and HSC cells; experiment: IGFBP-1 synthesis in various cell types (Northern and Western blot); type: cell-based, human; rat; settings: 50 nM halofuginone, serum-free medium, hepatocyte lines vs fibroblasts, osteoblasts
HepG2 cells = experiment: HepG2 cell proliferation (cell number); settings: 24 h, halofuginone at concentration that affect IGFBP-1 synthesis
[5] = test system: TAA-induced cirrhotic liver; experiment: Liver regeneration after 70% partial hepatectomy in TAA-induced cirrhotic rats
stellate cells (HSC-T6) = experiment: Stellate cell motility assay (phagokinetic tracks); settings: conditioned medium of HepG2 treated with 50 nM halofuginone (contains IGFBP-1) added to HSC
[6] = test system: rats with TAA-induced liver fibrosis
[7] = test system: collagen α1(I) gene expression; settings: skin fibroblasts in culture, incl. from scleroderma or cGVHD patients; cited from earlier work

C[C@@H]1C[C@@H]([C@H](O)CC2CC(=O)NC(=O)C2)C(=O)[C@@H](C)C1 [cyclohexamide]
effect on halofuginone-dependent increase in IGFBP-1 gene expression (IGFBP-1 in HepG2 cells; 10 μg/ml cyclohexamide with 50 nM halofuginone, 24 h): annulled

insulin: insulin, comparator incubated with rat primary hepatocytes
IGFBP-1 synthesis (Western blot) ([1]; insulin, 24 h (10 nM, 100 nM elsewhere in the source)): reduction in IGFBP-1 synthesis

O=C(CC1NCCC[C@H]1O)Cn1cnc2cc(Br)c(Cl)cc2c1=O (stereo in doubt) [halofuginone, 7-bromo-6-chloro-3-[3-(3-hydroxy-2-piperidinyl)-2-oxopropyl]-4(3H)-quinazolinone]
effect on TAA-induced down-regulation of IGFBP-1 gene expression (Northern blot) (IGFBP-1 gene expression; after 2 and 4 weeks of treatment): prevented the TAA-induced down-regulation
effect on TAA-induced reduction in IGFBP-1 gene expression (Northern blot) (IGFBP-1 gene expression; after one week of TAA treatment): without any effect
level of IGFBP-1 mRNA (Northern blot) (IGFBP-1 gene expression; halofuginone alone): slight effect
IGFBP-1 gene expression by in situ hybridization, TAA-induced decrease (IGFBP-1 gene expression; liver sections after 4 weeks, TAA plus halofuginone): prevented
IGFBP-3 mRNA levels (IGFBP-3 mRNA; after 1 week of treatment, any of the groups): No changes
effect on TAA-induced increase in IGFBP-3 level (IGFBP-3 mRNA; after 2 and 4 weeks): partially prevented
IGFBP-3 mRNA levels (IGFBP-3 mRNA; halofuginone alone, any time-points examined): no effect
PRL-1 and Apolipoprotein AIV expression by Northern blotting [2]: confirmed the Atlas microarray findings
IGFBP-1 gene expression (Northern blot) (IGFBP-1 in HepG2 cells; 10 nM halofuginone, 24 h, further increase at higher concentrations, no expression without halofuginone): increased IGFBP-1 gene expression
time after halofuginone treatment at which increased IGFBP-1 gene expression was observed (IGFBP-1 in HepG2 cells; 50 nM halofuginone): 6 h
time after which IGFBP-1 content in the conditioned media increased (IGFBP-1 in HepG2 cells; 50 nM halofuginone): 10 to 15 h
IGFBP-1 in conditioned medium after halofuginone removal (IGFBP-1 in HepG2 cells; 50 nM halofuginone for 11 h, washed, fresh medium for additional 13 h, compared with untreated cells): high levels of IGFBP-1
incubation time needed for increase in IGFBP-1 secretion (IGFBP-1 in HepG2 cells; 50 nM halofuginone, medium replaced, IGFBP-1 detected 23 h later): one hour of incubation with halofuginone was sufficient
concentration at which an increase in the level of IGFBP-1 in conditioned medium starts (Western blot) (IGFBP-1 in HepG2 cells; HepG2, 24 h): ≥ 50 nM
fibrotic condition ([3]; given to rats with established fibrosis): almost complete resolution
HSC activation, increase in collagen α1(I) gene expression and collagen deposition ([3]; rats insulted with DMN or TAA): prevent HSC activation and abolish the increase in collagen α1(I) gene expression and collagen deposition
cell types responding with IGFBP-1 gene expression and synthesis [4]: Only cells of the hepatocyte origin demonstrated increased IGFBP-1 gene expression and synthesis
cell proliferation (cell number) (HepG2 cells): significant reduction in cell proliferation
PCNA labeling index ([5]; eight weeks of halofuginone after TAA, 48 hours after 70% PHx, untreated animals 18.8±2.9): 31.4±6.4
restituted liver mass ([5]; eight weeks of halofuginone in diet after TAA, 48 hours after 70% PHx, control food group 13.7±4.5, p<0.05): 24.2±5.7%
liver Ishak staging ([5]; halofuginone treatment of TAA cirrhotic rats): decrease
HSC cell motility (track area) (stellate cells (HSC-T6)): significant inhibition in cell motility
IGFBP-1 synthesis (Western blot) ([1]; halofuginone 1 nM, 24 h): increased the synthesis of IGFBP-1
Ishak staging of fibrosis (grade) ([6]; TAA 200 mg/kg twice weekly plus halofuginone 5 ppm in the diet, 4 weeks, TAA alone grade 5-6): 1-2
αSMA-positive (activated) stellate cells ([6]; TAA plus halofuginone given orally (5 ppm in diet), 4 weeks, immunohistochemistry): only traces
collagen level (Sirius red) ([6]; TAA plus halofuginone, 4 weeks): low levels of collagen
level of TIMP-2 ([6]; TAA plus halofuginone, 4 weeks, compared with TAA-treated rats): reduced
collagen α1(I) gene expression by remaining stellate cells ([6]; TAA plus halofuginone, 4 weeks, in situ hybridization): low levels
ECM, collagen, αSMA stellate cells, collagen α1(I) expression, TIMP-2 ([6]; rat, in vivo): No changes
collagen α1(I) gene expression and collagen production [7]: attenuated
